Calls of active or inactive are those of the source. No cut-off for these calls is given here.
Experiments:
[1] = molecular target: T1, Nuclear factor NF-kappa-B complex (Homo sapiens) (UniProt Q00653+P19838+Q04206); experiment: Inhibition of human NF-kB in human HCT-116 cells assessed as suppression of TNF-alpha induced TAK1 phosphorylation at 0.5 to 5 uM pretreated with compounds for 24 hrs followed by TNF-alpha stimulation for 10 mins by Western blot analysis; format: cell-based; conditions: dose 0.5-5 µM, time 1450.0 min
A549 [2] = experiment: Induction of apoptosis in human A549 cells assessed as early apoptotic cells at 0.6 uM measured by annexinV-FITC/propidium iodide staining based flow cytometry analysis (reference value: 1.17%); format: functional
A549 [3] = experiment: Induction of apoptosis in human A549 cells assessed as viable cells at 1.2 uM measured by annexinV-FITC/propidium iodide staining based flow cytometry analysis (reference value: 97.8%); format: functional; conditions: read-out: Activity
A549 [4] = experiment: Induction of apoptosis in human A549 cells assessed as necrotic cells at 1.8 uM measured by annexinV-FITC/propidium iodide staining based flow cytometry analysis (reference value: 0.42%); format: functional
A549 [5] = experiment: Cell cycle arrest in human A549 cells assessed as accumulation at G0/G1 phase at 1.8 uM measured after 24 hrs by PI staining based Flow cytometry method (reference value: 55.54%); format: functional
[6] = molecular target: T1, Nuclear factor NF-kappa-B complex (Homo sapiens); experiment: Inhibition of human NF-kB in human HCT-116 cells assessed as suppression of TNF-alpha induced IkBalpha phosphorylation at 0.5 to 5 uM pretreated with compounds for 24 hrs followed by TNF-alpha stimulation for 10 mins by Western blot analysis; format: cell-based; conditions: dose 0.5-5 µM, time 1450.0 min
MAP3K7 = experiment: Inhibition of human TAK1 in human A549 cells assessed as suppression of TNF-alpha induced TAK1 expression at 0.5 to 5 uM pretreated with compounds for 24 hrs followed by TNF-alpha stimulation for 10 mins by Western blot analysis; conditions: dose 0.5-5 µM, time 1450.0 min
[7] = molecular target: T1, Nuclear factor NF-kappa-B complex (Homo sapiens); experiment: Inhibition of human NF-kB in human A549 cells assessed as suppression of TNF-alpha induced p-65 phosphorylation at 0.5 to 5 uM pretreated with compounds for 24 hrs followed by TNF-alpha stimulation for 10 mins by Western blot analysis; format: cell-based; conditions: dose 0.5-5 µM, time 1450.0 min
HCT-116 = experiment: Cell cycle arrest in human HCT-116 cells assessed as accumulation at G2/M phase at 1.8 uM measured after 24 hrs by PI staining based Flow cytometry method; format: functional

T1 sequence (P19838 whole entry, looked up): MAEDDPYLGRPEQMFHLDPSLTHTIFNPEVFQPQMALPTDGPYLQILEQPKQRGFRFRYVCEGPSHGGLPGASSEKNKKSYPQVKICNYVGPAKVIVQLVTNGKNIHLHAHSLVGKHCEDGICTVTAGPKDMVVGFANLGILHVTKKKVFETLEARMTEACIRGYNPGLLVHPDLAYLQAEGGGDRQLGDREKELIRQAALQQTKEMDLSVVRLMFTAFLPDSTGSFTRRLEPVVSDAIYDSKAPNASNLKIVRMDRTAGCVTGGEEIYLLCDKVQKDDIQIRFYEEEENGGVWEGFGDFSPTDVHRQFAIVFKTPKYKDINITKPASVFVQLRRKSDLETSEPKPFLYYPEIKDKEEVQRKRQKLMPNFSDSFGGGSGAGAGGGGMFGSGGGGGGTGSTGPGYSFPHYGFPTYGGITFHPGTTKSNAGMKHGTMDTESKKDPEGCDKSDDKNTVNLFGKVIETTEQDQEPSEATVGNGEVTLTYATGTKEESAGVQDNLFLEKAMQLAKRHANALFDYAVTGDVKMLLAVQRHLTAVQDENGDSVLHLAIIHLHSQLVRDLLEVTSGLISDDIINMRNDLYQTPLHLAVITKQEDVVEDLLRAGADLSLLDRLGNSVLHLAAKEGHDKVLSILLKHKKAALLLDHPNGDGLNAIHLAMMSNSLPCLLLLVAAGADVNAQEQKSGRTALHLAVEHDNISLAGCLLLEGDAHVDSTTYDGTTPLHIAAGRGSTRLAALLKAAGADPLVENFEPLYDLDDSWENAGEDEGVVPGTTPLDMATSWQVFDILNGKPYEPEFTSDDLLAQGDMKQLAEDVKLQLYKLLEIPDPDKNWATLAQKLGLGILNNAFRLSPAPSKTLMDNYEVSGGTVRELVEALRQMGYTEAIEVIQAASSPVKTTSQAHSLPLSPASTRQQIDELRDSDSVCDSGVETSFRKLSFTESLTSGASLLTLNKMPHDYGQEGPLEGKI
T1 sequence (Q00653 whole entry, looked up): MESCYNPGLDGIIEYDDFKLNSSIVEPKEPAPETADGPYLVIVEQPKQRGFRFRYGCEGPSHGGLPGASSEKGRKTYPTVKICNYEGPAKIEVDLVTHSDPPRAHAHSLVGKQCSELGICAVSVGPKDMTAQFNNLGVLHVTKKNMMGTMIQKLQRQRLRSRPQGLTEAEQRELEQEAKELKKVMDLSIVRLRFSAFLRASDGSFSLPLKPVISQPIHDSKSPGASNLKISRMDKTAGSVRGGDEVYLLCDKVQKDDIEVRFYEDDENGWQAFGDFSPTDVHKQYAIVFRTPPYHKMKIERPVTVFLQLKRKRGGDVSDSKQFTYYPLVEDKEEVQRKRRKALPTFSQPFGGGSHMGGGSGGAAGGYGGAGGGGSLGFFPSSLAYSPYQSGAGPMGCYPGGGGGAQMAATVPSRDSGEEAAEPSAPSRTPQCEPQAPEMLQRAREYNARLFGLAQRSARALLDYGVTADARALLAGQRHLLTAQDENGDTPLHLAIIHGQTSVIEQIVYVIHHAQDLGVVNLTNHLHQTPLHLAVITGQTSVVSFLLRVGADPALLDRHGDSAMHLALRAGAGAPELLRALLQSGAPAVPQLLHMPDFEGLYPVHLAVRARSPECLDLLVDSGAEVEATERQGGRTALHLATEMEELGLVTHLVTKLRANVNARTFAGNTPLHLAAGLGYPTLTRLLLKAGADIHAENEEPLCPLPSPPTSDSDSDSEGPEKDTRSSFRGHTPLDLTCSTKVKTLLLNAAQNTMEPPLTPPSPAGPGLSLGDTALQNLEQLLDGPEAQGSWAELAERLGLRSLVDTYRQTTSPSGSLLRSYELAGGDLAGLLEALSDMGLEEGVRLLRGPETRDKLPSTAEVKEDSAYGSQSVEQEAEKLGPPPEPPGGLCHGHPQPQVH
T1 sequence (Q04206 whole entry, looked up): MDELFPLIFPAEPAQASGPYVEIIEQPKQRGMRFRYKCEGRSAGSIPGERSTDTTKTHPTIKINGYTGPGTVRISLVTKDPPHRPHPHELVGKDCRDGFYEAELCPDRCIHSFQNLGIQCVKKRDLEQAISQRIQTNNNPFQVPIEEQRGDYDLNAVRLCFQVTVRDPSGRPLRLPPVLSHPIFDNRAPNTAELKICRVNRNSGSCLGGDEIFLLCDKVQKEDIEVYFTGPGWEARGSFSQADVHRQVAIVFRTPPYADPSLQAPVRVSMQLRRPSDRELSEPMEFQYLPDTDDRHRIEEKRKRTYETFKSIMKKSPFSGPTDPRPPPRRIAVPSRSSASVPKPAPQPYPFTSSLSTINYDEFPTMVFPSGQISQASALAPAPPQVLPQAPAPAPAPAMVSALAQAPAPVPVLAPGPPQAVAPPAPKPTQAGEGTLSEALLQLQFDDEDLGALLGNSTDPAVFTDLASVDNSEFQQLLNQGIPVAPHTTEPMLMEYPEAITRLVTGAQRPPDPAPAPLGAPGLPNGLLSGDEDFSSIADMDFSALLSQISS

- inhibition [1]: Active
- inhibition [6]: Active
- inhibition (MAP3K7): Active
- inhibition [7]: Active
Compound: CNC(=O)c1cc(Oc2ccc(Nc3nccc(N4CCCCC4)n3)cc2)ccn1
- Activity (A549 [2]): 8.16%
- viability at 1.2 µM (A549 [3]): 80.6%
- Activity (A549 [4]): 0.71%
- Activity (A549 [5]): 52.78%
- Activity (HCT-116): 36.72%

Reference: ChEMBL document CHEMBL4831488, “Design, synthesis, docking, molecular dynamics and bioevaluation studies on novel N-methylpicolinamide and thienopyrimidine derivatives with inhibiting NF-κB and TAK1 activities: Cheminformatics tools RDKit applied in drug design” (Eur J Med Chem, 2021)
